Data reported in patent US20160137630A1, “INDUCTION OF GATA2 BY HDAC1 AND HDAC2 INHIBITORS” (ACETYLON PHARMACEUTICALS, INC., priority 2014, published 2016).
“Also recorded” adds a separate entry of the source. Read-outs that look alike come from different tables or passages of the source.

Columns and labels:
[1] = target: HDAC3 (Homo sapiens, UniProt O15379); assay: in vitro biochemical HDAC inhibition assay; conditions: Table 3; read-out: IC50 HDAC3
[2] = target: HDAC6 (Homo sapiens, UniProt Q9UBN7); assay: in vitro biochemical HDAC inhibition assay
[3] = target: HDAC2 (Homo sapiens, UniProt Q92769); assay: in vitro biochemical HDAC inhibition assay; conditions: Table 3; read-out: IC50 HDAC2
[4] = target: HDAC1 (Homo sapiens, UniProt Q13547); assay: in vitro biochemical HDAC inhibition assay; conditions: Table 3; read-out: IC50 HDAC1
[5] = test system: MV4-11 cells; assay: GATA2 expression in MV4-11 AML cell line; assay type: cell-based; conditions: 1 uM single agent, 48 h and 72 h
Protocol: FIG. 24. […] (A-B) MV4-11 cells were plated at 2×10^5 cells/ml at indicated doses for 48 h and 72 h. RNA was prepared and analyzed for GATA2 and GAPDH as internal control.

[6] = test system: HDACs 4-9; assay: in vitro HDAC inhibition assay, HDACs 4-9; assay type: biochemical; conditions: concentrations as high as 20 μM; FIG. 20
[7] = test system: Human CD34+ bone marrow cells; assay: erythroid maturation in CS1 by CD71/GlyA flow cytometry; assay type: cell-based; conditions: 1 μM, first 5 days
Text: To investigate the effects of HDAC inhibition on later stages of erythroid maturation, differentiation in CS1 was followed by flow cytometry using fluorescent antibodies against the transferrin receptor (CD71) and glycophorin A (GlyA). […] The majority of vehicle control cells continued to differentiate, becoming CD71^posGlyA^pos by day 8. […] CD71^posGlyA^mid cells are equivalent to proerythroblasts (ProE), while CD71^posGlyA^pos cells include the more differentiated basophilic and polychromatic erythroblasts.

[8] = test system: human bone marrow-derived CD34+ cells; assay: viability of expanded CD34+ cells; assay type: cell-based; conditions: Homo sapiens, 48 h; 2 days of treatment; FIG. 19A
Text: This possibility was first tested by measuring the viability of expanded human bone marrow-derived CD34+ cells, composed of primitive and more differentiated hematopoietic progenitors of multiple lineages, following 2 days of treatment with compound.

[9] = test system: HbG mRNA; assay: % HbG mRNA induction in 2-phase culture systems CS1 and CS2; assay type: cell-based, human
Text: Then, the cells were differentiated by exposure to either vehicle (control) or Compound 001. RNA samples of HbG were taken at days 0, 3, 5, and 8. […] Staining cells with a FITC-conjugated anti-HbF antibody and flow cytometry was used to measure induction of fetal hemoglobin.

Chain of HDAC3 (O15379 whole entry): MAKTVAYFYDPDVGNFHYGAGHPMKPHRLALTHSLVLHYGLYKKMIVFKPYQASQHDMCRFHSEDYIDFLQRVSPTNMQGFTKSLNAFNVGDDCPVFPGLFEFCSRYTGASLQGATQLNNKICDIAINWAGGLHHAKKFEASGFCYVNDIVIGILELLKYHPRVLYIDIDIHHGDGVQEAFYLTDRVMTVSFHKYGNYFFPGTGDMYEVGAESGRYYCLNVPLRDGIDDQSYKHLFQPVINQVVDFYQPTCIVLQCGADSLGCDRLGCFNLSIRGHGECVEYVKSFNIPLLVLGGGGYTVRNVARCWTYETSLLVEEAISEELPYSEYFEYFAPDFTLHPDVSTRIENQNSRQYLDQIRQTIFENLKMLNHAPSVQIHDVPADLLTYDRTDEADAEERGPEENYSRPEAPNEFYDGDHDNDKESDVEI
Chain of HDAC3 (Q9Y618 395-489 partner limits assumed): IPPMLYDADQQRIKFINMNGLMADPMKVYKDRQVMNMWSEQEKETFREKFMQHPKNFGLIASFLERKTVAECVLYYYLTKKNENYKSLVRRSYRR
Chain of HDAC6 (Q9UBN7 whole entry): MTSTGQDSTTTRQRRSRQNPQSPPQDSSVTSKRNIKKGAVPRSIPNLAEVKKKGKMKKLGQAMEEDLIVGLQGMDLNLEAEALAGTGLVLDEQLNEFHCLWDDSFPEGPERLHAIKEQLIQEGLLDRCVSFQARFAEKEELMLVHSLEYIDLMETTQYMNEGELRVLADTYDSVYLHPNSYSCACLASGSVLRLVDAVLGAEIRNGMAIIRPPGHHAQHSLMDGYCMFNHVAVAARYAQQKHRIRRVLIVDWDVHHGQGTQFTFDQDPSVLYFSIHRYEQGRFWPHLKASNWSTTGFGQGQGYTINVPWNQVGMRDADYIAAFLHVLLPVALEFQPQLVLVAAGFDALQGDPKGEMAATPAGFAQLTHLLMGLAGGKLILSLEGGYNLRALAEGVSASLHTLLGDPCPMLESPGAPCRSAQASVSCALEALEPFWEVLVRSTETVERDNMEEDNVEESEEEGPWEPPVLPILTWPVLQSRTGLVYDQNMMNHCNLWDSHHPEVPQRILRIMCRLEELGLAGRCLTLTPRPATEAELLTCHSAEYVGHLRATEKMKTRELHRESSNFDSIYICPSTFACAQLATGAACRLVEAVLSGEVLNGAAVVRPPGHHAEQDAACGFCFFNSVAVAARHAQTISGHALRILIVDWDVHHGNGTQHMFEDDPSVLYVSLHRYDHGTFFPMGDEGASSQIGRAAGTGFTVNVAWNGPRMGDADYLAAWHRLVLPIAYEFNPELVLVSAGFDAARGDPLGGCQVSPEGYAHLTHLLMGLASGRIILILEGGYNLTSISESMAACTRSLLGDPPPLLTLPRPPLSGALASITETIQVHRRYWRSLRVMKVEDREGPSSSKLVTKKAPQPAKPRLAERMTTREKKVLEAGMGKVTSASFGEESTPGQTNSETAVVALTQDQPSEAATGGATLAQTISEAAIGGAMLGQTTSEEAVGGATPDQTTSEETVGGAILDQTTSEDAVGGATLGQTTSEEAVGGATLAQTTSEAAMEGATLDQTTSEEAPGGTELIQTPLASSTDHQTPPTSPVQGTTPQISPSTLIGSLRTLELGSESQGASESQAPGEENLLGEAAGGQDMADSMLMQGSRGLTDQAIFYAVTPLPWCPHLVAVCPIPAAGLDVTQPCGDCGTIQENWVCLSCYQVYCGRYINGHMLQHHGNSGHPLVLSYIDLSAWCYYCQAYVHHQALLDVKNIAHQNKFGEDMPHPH
Chain of HDAC1 (Q13547 whole entry): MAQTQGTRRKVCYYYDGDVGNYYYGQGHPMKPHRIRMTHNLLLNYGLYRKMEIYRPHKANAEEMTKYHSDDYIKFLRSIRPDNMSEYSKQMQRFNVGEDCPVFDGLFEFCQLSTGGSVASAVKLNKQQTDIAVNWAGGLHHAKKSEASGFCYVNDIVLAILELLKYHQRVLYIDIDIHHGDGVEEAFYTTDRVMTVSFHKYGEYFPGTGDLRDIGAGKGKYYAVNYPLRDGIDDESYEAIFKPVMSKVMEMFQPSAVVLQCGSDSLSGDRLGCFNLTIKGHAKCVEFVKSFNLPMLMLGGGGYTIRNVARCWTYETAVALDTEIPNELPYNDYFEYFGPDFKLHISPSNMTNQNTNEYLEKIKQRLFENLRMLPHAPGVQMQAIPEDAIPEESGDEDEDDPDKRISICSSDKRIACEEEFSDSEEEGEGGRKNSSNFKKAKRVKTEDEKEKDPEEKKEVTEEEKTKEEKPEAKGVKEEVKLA
Chain of HDAC2 (Q92769 whole entry): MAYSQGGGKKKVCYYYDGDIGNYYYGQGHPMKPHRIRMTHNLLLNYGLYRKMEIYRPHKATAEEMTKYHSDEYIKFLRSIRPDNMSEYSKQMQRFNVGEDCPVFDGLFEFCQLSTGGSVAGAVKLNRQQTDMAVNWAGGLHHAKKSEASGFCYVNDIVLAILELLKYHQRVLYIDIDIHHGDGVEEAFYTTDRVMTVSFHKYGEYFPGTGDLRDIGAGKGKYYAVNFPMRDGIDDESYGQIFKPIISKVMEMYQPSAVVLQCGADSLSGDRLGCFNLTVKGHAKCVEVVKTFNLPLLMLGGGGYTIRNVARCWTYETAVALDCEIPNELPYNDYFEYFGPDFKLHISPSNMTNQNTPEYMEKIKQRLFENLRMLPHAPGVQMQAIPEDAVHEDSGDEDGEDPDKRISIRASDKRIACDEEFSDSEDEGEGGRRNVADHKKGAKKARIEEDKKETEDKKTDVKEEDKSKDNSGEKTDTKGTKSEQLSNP

IC50 [1] [µM] | IC50 [3] [µM] | IC50 [4] [µM] | SMILES | GATA2 level [5] | other results
2.16 | 0.177 | 0.11 | O=C(NO)c1cnc(NC2(c3ccccc3)CCN(C(=O)Nc3ccc(Cl)c(Cl)c3)CC2)nc1 [Compound 1011] |  | IC50 ([2]; read-out: IC50 HDAC6, Table 3): 0.014 µM
 |  |  | Nc1ccc(-c2cccs2)cc1NC(=O)c1ccc2c(c1)cc(C1CC1)n2CCN1CCOCC1 [Compound 005, N-(2-amino-5-(thiophen-2-yl)phenyl)-2-cyclopropyl-1-(2-morpholinoethyl)-1H-indole-5-carboxamide] | induced GATA2 level | 
0.422 | 0.103 | 0.13 | CC(C)[C@@H](C(=O)N1CCC(C)(Nc2ncc(C(=O)NO)cn2)CC1)c1ccccc1 [Compound 1027] |  | IC50 [2]: 0.012 µM
 |  |  | Nc1ccccc1NC(=O)c1ccc(CNC(=O)OCc2cccnc2)cc1 [Entinostat, reference compound] |  | inhibition of HDACs 4-9 [6]: negligible inhibitory activity; also recorded: no inhibition; erythroid differentiation (CD71/GlyA) [7]: differentiated normally; IC50 [8]: 3 µM; % HbG ([9]; 1 μM, increased from 10%): 46%; induction in % HbG ([9]; differentiation phase, both culture systems, FIG. 10B, 21A-C): dose- and time-dependent induction
 |  |  | Nc1ncn([C@@H]2O[C@H](CO)[C@@H](O)[C@H]2O)c(=O)n1 [Azacitidine, azacitidine, reference compound] | induced GATA2 level | 
